Data on 16 compounds can be found in patent US5378848A, “Condensed imidazopyridine derivatives” (Shionogi & Co., Ltd., priority 1992, dated 1995).

One experiment relates to human memory. Particulars: M. Sarter et al., TINS 11, 13 (1988); cited from earlier work.
For a further experiment, the target named is Benzodiazepine Receptor. The experiment in a line: Test on Binding to Benzodiazepine Receptor (inhibition of specific binding of tritium-labeled diazepam). Set-up: species or system male Wistar rats. Particulars: rat cerebral cortex; 2 nM tritium-labeled diazepam; 0° C., 60 minutes; Ki=IC50÷(1+L/Kd). The procedure: This test was carried out modifying partially a method of Moehler & Okada, Science, 198, 849-851 (1977). Receptor preparation was provided from the cerebral cortex of male Wistar rats (11-13 weeks age). Inhibitory action of the test compound on the specific binding of tritium-labeled diazepam to the receptor was evaluated as follows: 2 nM tritium-labeled diazepam and an aqueous solution of the test compound in 5 or 6 different concentrations were incubated with the receptor preparation at 0° C. for 60 minutes. The 50% inhibitory concentration (IC50) was measured by the concentration-response curve. In addition, the inhibitory constant (Ki) of the test compound was calculated by dissociation constant (Kd) and concentration (L) of tritium-labelled diazepam.

The subject of experiment [1] is Pentylenetetrazole-Induced Convulsion. In words: Antagonism of Pentylenetetrazole-Induced Convulsion (agonistic activity). It counts as in vivo. The settings on record: Mus musculus, iv; male mice; test compound i.v.; pentylenetetrazole 125 mg/kg s.c.; 2-hour observation; probit method; read-out: ED50 (dose required to prevent tonic convulsion and death in 50% of the animals). The procedure:
Agonistic activity was evaluated in this Experiment. Pentylenetetrazole was subcutaneously administered male mice (a group of 8-16 male mice was employed in each test) at a dose of 125 mg/kg immediately after intravenous injection of the test compound. The dose (ED50) required to prevent tonic convulsion and death in 50% of the animals during subsequent 2-hour observation period was calculated by the probit method.

Experiment [2] has the same test system. The experiment in a line: Potentiation of Pentylenetetrazole-Induced Convulsion (inverse agonist activity). In kind it is in vivo. The settings on record: Mus musculus, iv; male mice; test compound i.v.; pentylenetetrazole 90 mg/kg s.c.; 2-hour observation; probit method; read-out: ED50 (dose required to produce tonic convulsion and death in 50% of the animals). The procedure: Inverse agonist activity was evaluated in this Experiment. Pentylenetetrazole was subscutaneously administered male mice (a group of 8-16 male mice was employed in each test) at a dose of 90 mg/kg immediately after intravenous injection of the test compound. The dose (ED50) required to produce tonic convulsion and death in 50% of the animals during subsequent 2-hour observation period was calculated by the probit method.

For `CN1C(=O)CN=C(c2ccccc2)c2cc(Cl)ccc21` [diazepam], the “effect on human memory” value in the experiment on human memory is reported as “inhibits human memory”.

On Benzodiazepine Receptor, `Cc1cc(-c2nc3cnc4c(c3[nH]2)CCCCC4)on1` [Ic-7] yielded a Ki of 9.47 nM. In experiment [1], the ED50 stood at 1.05 mg/kg.

At Benzodiazepine Receptor, `c1ccc(-c2nc3cnc4c(c3[nH]2)CCCC4)cc1` [Ia-1, 2-Phenyl-6,7,8,9-tetrahydro-1H-imidazo[4,5-c]quinoline] came in with a Ki of 13.7 nM. The ED50 in experiment [1] stood at 7.85 mg/kg.

Consider `c1cc(-c2nc3cnc4c(c3[nH]2)COCC4)no1` [Ib-7, 2-(3-Isoxazolyl)-1,6,7,9-tetrahydroimidazo[4,5-d]pyrano[4,3-b]pyridine], for which the ED50 in experiment [2] worked out at 1.27 mg/kg. The compound also registered a Ki at Benzodiazepine Receptor of 2.09 nM.

The compound `Cc1cc(-c2nc3cnc4c(c3[nH]2)COCC4)on1` [Ib-5] displayed a Ki at Benzodiazepine Receptor of 6.97 nM. For the same compound, the ED50 in experiment [1] is 0.8 mg/kg.

On to `c1csc(-c2nc3cnc4c(c3[nH]2)CCCC4)c1` [Ia-3], for which, on Benzodiazepine Receptor, affinity was put at a Ki of 1.9 nM. That is a single-digit nanomolar value.

For the compound `c1csc(-c2nc3cnc4c(c3[nH]2)CCCCC4)c1` [Ic-3], at Benzodiazepine Receptor, the Ki amounted to 6.06 nM.

With `CCOC(=O)N1CCc2ncc3nc(-c4ccon4)[nH]c3c2C1` [Ig-1, 2-(3-isoxazolyl)-8-ethoxycarbonyl-6,7,8,9-tetrahydro-1H-imidazo[4,5-c]naphthylidine], at Benzodiazepine Receptor, the affinity corresponds to a Ki of 2.8 nM. Further, the ED50 in experiment [1] is 3.69 mg/kg.

As to `c1cc(-c2nc3cnc4c(c3[nH]2)CSCC4)no1` [If-1, 2-(3-Isoxazolyl)-1,6,7,9-tetrahydroimidazo[4,5-d]-thiopyrano[4,3-b]pyridine], in experiment [2], the ED50 came to 0.96 mg/kg. Besides, the affinity at Benzodiazepine Receptor, expressed as Ki, was 0.44 nM.

Compound `c1coc(-c2nc3cnc4c(c3[nH]2)CCCC4)c1` [Ia-5] registered a Ki on Benzodiazepine Receptor of 3.46 nM.

For the compound `c1cc(-c2nc3cnc4c(c3[nH]2)CCC4)no1` [Id-1], the ED50 in experiment [2] was found to be 0.4 mg/kg. Also, the affinity on Benzodiazepine Receptor corresponds to a Ki of 2.55 nM.

Compound `Cc1cc(-c2nc3cnc4c(c3[nH]2)CCC4)on1` [Id-2] registered a Ki at Benzodiazepine Receptor of 8.94 nM. For the same compound, in experiment [1], the ED50 is 0.74 mg/kg.

Compound `c1cc(-c2nc3cnc4c(c3[nH]2)CCCCC4)no1` [Ic-6] displayed a Ki at Benzodiazepine Receptor of 2.29 nM.

In the case of `Cc1cc(-c2nc3cnc4c(c3[nH]2)CCCC4)on1` [Ia-6], the Ki on Benzodiazepine Receptor came to 2.19 nM. The ED50 in experiment [1] was found to be 0.17 mg/kg.

For `c1cc(-c2nc3cnc4c(c3[nH]2)CCCC4)no1` [Ia-7, 2-(3-Isoxazolyl) -6,7,8,9-tetrahydro-1H-imidazo[4,5-c]quinoline], the affinity on Benzodiazepine Receptor, expressed as Ki, was 1.3 nM. In other words, the single-digit nanomolar range.

For the compound `CC1(C)Cc2ncc3nc(-c4ccon4)[nH]c3c2C1` [Ie-1, 2-(3-Isoxazolyl]-7,7-dimethyl-1H-imidazo[4,5-d]-cyclopenta[b]pyridine], the 50% effective dose (ED50) in experiment [2] amounted to 0.25 mg/kg. Moreover, the affinity at Benzodiazepine Receptor, expressed as Ki, was 7.2 nM.
